Laboratory results: ChEMBL document CHEMBL1147331, “Cytotoxic and antimalarial bisbenzylisoquinoline alkaloids from Stephania erecta” (J Nat Prod, 1993)
Values after ≈ are worked out from the molar mass of the structure shown.

How the values were obtained:
[1] = Selectivity index, ratio of ED50 for human LUC1 cells to ED50 for chloroquine-sensitive Plasmodium falciparum D6; type: toxicity, cell-based; details: read-out: Ratio ED50
[2] = Cytotoxicity against human SK-MEL-2 cells after 3 days by sulforhodamine B assay; type: cell-based; details: read-out: ED50
[3] = Cytotoxicity against human LNCAP cells after 3 days by sulforhodamine B assay; type: cell-based; details: read-out: ED50
[4] = Cytotoxicity against human ZR-75-1 cells after 3 days by sulforhodamine B assay; type: cell-based; details: read-out: ED50
[5] = Selectivity index, ratio of ED50 for human KB cells to ED50 for chloroquine-resistant Plasmodium falciparum W2; type: toxicity, cell-based; details: read-out: Ratio ED50
[6] = Selectivity index, ratio of ED50 for human HT1080 cells to ED50 for chloroquine-resistant Plasmodium falciparum W2; type: toxicity, cell-based, HT-1080; details: read-out: Ratio ED50
[7] = Selectivity index, ratio of ED50 for human KB-V1 cells to ED50 for chloroquine-resistant Plasmodium falciparum W2; type: toxicity, cell-based; details: read-out: Ratio ED50
[8] = Cytotoxicity against human LUC1 cells after 3 days by sulforhodamine B assay; type: cell-based; details: read-out: ED50
[9] = Selectivity index, ratio of ED50 for human HT1080 cells to ED50 for chloroquine-sensitive Plasmodium falciparum D6; type: toxicity, cell-based, HT-1080; details: read-out: Ratio ED50
[10] = Selectivity index, ratio of ED50 for human ZR-75-1 cells to ED50 for chloroquine-sensitive Plasmodium falciparum D6; type: toxicity, cell-based; details: read-out: Ratio ED50
[11] = Cytotoxicity against human BCA1 cells after 3 days by sulforhodamine B assay; type: cell-based; details: read-out: ED50
[12] = Selectivity index, ratio of ED50 for human KB cells to ED50 for chloroquine-sensitive Plasmodium falciparum D6; type: toxicity, cell-based; details: read-out: Ratio ED50
in vitro [13] = details: mouse, P388 cells
Description: Selectivity index, ratio of ED50 for mice (Mus musculus) P388 cells to ED50 for chloroquine-sensitive Plasmodium falciparum D6

in vitro [14] = details: human, A431 cells
Description: Selectivity index, ratio of ED50 for human A431 cells to ED50 for chloroquine-sensitive Plasmodium falciparum D6

[15] = Selectivity index, ratio of ED50 for human COL1 cells to ED50 for chloroquine-sensitive Plasmodium falciparum D6; type: toxicity, cell-based; details: read-out: Ratio ED50
[16] = Selectivity index, ratio of ED50 for human LNCaP cells to ED50 for chloroquine-sensitive Plasmodium falciparum D6; type: toxicity, cell-based; details: read-out: Ratio ED50
[17] = Selectivity index, ratio of ED50 for human KB-V1 cells to ED50 for chloroquine-sensitive Plasmodium falciparum D6; type: toxicity, cell-based; details: read-out: Ratio ED50
[18] = Cytotoxicity against human Col1 cells after 3 days by sulforhodamine B assay; type: cell-based; details: read-out: ED50
Plasmodium falciparum [19] = experiment: Antimalarial activity after 24 hrs against chloroquine-sensitive Plasmodium falciparum D6 infected type A+ human erythrocytes by [3H]hypoxanthine uptake; type: functional; details: read-out: ED50 (the source's name)
[20] = Cytotoxicity against human HT1080 cells after 3 days by sulforhodamine B assay; type: cell-based, HT-1080; details: read-out: ED50
[21] = Selectivity index, ratio of ED50 for human LUC1 cells to ED50 for chloroquine-resistant Plasmodium falciparum W2; type: toxicity, cell-based; details: read-out: Ratio ED50
in vitro [22] = details: mouse, P388 cells; remark: listed apart in the source
Description: Selectivity index, ratio of ED50 for mice (Mus musculus) P388 cells to ED50 for chloroquine-resistant Plasmodium falciparum W2

[23] = Selectivity index, ratio of ED50 for human LNCaP cells to ED50 for chloroquine-resistant Plasmodium falciparum W2; type: toxicity, cell-based; details: read-out: Ratio ED50
[24] = Cytotoxicity against human KBV1 cells after 3 days by sulforhodamine B assay; type: cell-based, KB-V1; details: read-out: ED50
[25] = Selectivity index, ratio of ED50 for human BCA1 cells to ED50 for chloroquine-sensitive Plasmodium falciparum D6; type: toxicity, cell-based; details: read-out: Ratio ED50
[26] = Cytotoxicity against human KB cells after 3 days by sulforhodamine B assay; type: cell-based; details: read-out: ED50
[27] = Cytotoxicity against mouse P388 cells after 2 days by sulforhodamine B assay; type: cell-based; details: read-out: ED50
in vitro [28] = details: human, A431 cells; remark: listed apart in the source
Description: Selectivity index, ratio of ED50 for human A431 cells to ED50 for chloroquine-resistant Plasmodium falciparum W2

[29] = Selectivity index, ratio of ED50 for human COL1 cells to ED50 for chloroquine-resistant Plasmodium falciparum W2; type: toxicity, cell-based; details: read-out: Ratio ED50
[30] = Cytotoxicity against human A431 cells after 3 days by sulforhodamine B assay; type: cell-based, A-431; details: read-out: ED50
[31] = Selectivity index, ratio of ED50 for human ZR-75-1 cells to ED50 for chloroquine-resistant Plasmodium falciparum W2; type: toxicity, cell-based; details: read-out: Ratio ED50
[32] = Selectivity index, ratio of ED50 for human MEL2 cells to ED50 for chloroquine-sensitive Plasmodium falciparum D6; type: toxicity, cell-based; details: read-out: Ratio ED50
Plasmodium falciparum [33] = experiment: Antimalarial activity after 24 hrs against chloroquine-resistant Plasmodium falciparum W2 infected type A+ human erythrocytes by [3H]hypoxanthine uptake; type: functional; details: read-out: ED50 (the source's name)
[34] = Selectivity index, ratio of ED50 for human BCA1 cells to ED50 for chloroquine-resistant Plasmodium falciparum W2; type: toxicity, cell-based; details: read-out: Ratio ED50
[35] = Selectivity index, ratio of ED50 for human MEL2 cells to ED50 for chloroquine-resistant Plasmodium falciparum W2; type: toxicity, cell-based; details: read-out: Ratio ED50

SMILES	selectivity ratio [1]	CC50 at 72 h [2] [µg/mL]	CC50 at 72 h [3] [µg/mL]	CC50 at 72 h [4] [µg/mL]	selectivity ratio [5]	selectivity ratio [6]	selectivity ratio [7]	CC50 at 72 h [8] [µg/mL]	selectivity ratio [10]	CC50 at 72 h [11] [µg/mL]	CC50 at 72 h [18] [µg/mL]	EC50 (Plasmodium falciparum [19]) [µg/mL]	CC50 at 72 h [20] [µg/mL]	selectivity ratio (in vitro [22])	CC50 at 72 h [24] [µg/mL]	CC50 at 72 h [26] [µg/mL]	CC50 at 48 h [27] [µg/mL]	CC50 at 72 h [30] [µg/mL]	selectivity ratio [31]	EC50 (Plasmodium falciparum [33]) [µg/mL]	further results
COc1ccc2cc1Oc1ccc(cc1)C[C@H]1c3cc(c(OC)cc3CCN1C)Oc1c(O)c(OC)cc3c1[C@@H](C2)NCC3	123	15.4 (≈ 25.9 µM)	6.6 (≈ 11.1 µM)	1.2 (≈ 2.02 µM)	50	18	65	8.4 (≈ 14.1 µM)	23	4.1 (≈ 6.89 µM)	4.7 (≈ 7.9 µM)	0.0686 (≈ 0.115 µM)	2.2 (≈ 3.7 µM)	1	8.1 (≈ 13.6 µM)	6.3 (≈ 10.6 µM)	0.1 (≈ 0.168 µM)	4.2 (≈ 7.06 µM)	13	0.125 (≈ 0.21 µM)	selectivity ratio [9]: 32; selectivity ratio [12]: 92; selectivity ratio (in vitro [13]): 2; selectivity ratio (in vitro [14]): 61; selectivity ratio [15]: 69; selectivity ratio [16]: 97; selectivity ratio [17]: 118; selectivity ratio [21]: 67; selectivity ratio [23]: 53; selectivity ratio [25]: 60; selectivity ratio (in vitro [28]): 34; selectivity ratio [29]: 38; selectivity ratio [32]: 225; selectivity ratio [34]: 33
COc1ccc2cc1Oc1ccc(cc1)C[C@H]1c3c(cc(O)c(OC)c3Oc3cc4c(cc3OC)CCN(C)[C@@H]4C2)CCN1C		12.8 (≈ 21 µM)	8.3 (≈ 13.6 µM)	2.1 (≈ 3.45 µM)				8.6 (≈ 14.1 µM)	4	4.7 (≈ 7.72 µM)	7.5 (≈ 12.3 µM)	0.13 (≈ 0.214 µM)	7.2 (≈ 11.8 µM)	76	7.4 (≈ 12.2 µM)	6.4 (≈ 10.5 µM)	3.7 (≈ 6.08 µM)	8.9 (≈ 14.6 µM)	43	0.31 (≈ 0.509 µM)	
COc1ccc2cc1Oc1ccc(cc1)C[C@H]1c3cc(c(OC)cc3CCN1C)Oc1c(O)c(OC)cc3c1[C@@H](C2)N(C)CC3	80	14.9 (≈ 24.5 µM)	5.9 (≈ 9.69 µM)	2.5 (≈ 4.11 µM)	28	44	16	9.7 (≈ 15.9 µM)	21	5 (≈ 8.21 µM)	11.1 (≈ 18.2 µM)	0.121 (≈ 0.198 µM)	10 (≈ 16.4 µM)	32	3.7 (≈ 6.08 µM)	6.5 (≈ 10.7 µM)	7.4 (≈ 12.2 µM)	4.9 (≈ 8.05 µM)	11	0.23 (≈ 0.377 µM)	selectivity ratio [35]: 65; selectivity ratio [9]: 83; selectivity ratio [12]: 54; selectivity ratio (in vitro [13]): 61; selectivity ratio (in vitro [14]): 41; selectivity ratio [15]: 92; selectivity ratio [16]: 49; selectivity ratio [17]: 31; selectivity ratio [21]: 42; selectivity ratio [23]: 26; selectivity ratio [25]: 42; selectivity ratio (in vitro [28]): 21; selectivity ratio [29]: 48; selectivity ratio [32]: 124; selectivity ratio [34]: 22
COc1ccc2cc1Oc1ccc(cc1)C[C@H]1c3c(cc4c(c3Oc3cc5c(cc3OC)CCN[C@@H]5C2)OCO4)CCN1C	43	10.5 (≈ 17.7 µM)	3 (≈ 5.06 µM)	0.9 (≈ 1.52 µM)	30	15	11	2 (≈ 3.37 µM)	19	1.7 (≈ 2.87 µM)	3.1 (≈ 5.23 µM)	0.0466 (≈ 0.0786 µM)	1.9 (≈ 3.21 µM)	1	1.4 (≈ 2.36 µM)	3.9 (≈ 6.58 µM)	0.1 (≈ 0.169 µM)	1.8 (≈ 3.04 µM)	7	0.129 (≈ 0.218 µM)	selectivity ratio [35]: 81; selectivity ratio [9]: 41; selectivity ratio [12]: 84; selectivity ratio (in vitro [13]): 2; selectivity ratio (in vitro [14]): 39; selectivity ratio [15]: 67; selectivity ratio [16]: 64; selectivity ratio [17]: 30; selectivity ratio [21]: 16; selectivity ratio [23]: 23; selectivity ratio [25]: 36; selectivity ratio (in vitro [28]): 14; selectivity ratio [29]: 24; selectivity ratio [32]: 225; selectivity ratio [34]: 13
